# Experimental data from ChEMBL document CHEMBL4270520, “From hit to lead: Structure-based discovery of naphthalene-1-sulfonamide derivatives as potent and selective inhibitors of fatty acid binding protein 4” (Eur J Med Chem, 2018).
# Legend:
# [1] = target: T1, Fatty acid-binding protein, adipocyte (Homo sapiens, UniProt P15090)
# Description: Displacement of 1,8-ANS from FABP4 (unknown origin) after 3 mins by fluorescence assay
# [2] = target: Fatty acid-binding protein, heart (Homo sapiens, UniProt P05413); experiment: Inhibition of FABP3 (unknown origin)
# [3] = Intrinsic clearance in human liver microsomes assessed per gram of protein at 0.1 uM by HPLC-MS/MS analysis; type: ADME, microsome
# [4] = Stability in mouse liver microsomes assessed as parent compound remaining at 0.1 uM after 60 mins by HPLC-MS/MS analysis; type: ADME, microsome; conditions: read-out: Stability
# [5] = Intrinsic clearance in rat liver microsomes assessed per gram of protein at 0.1 uM by HPLC-MS/MS analysis; type: ADME, microsome
# [6] = Half life in rat liver microsomes at 0.1 uM by HPLC-MS/MS analysis; type: ADME, microsome
# Mus musculus [7] = experiment: Antidiabetic activity in C57BL/Ksj db/db mouse assessed as reduction in fasting blood glucose level at 100 mg/kg, po administered once daily via lavage for 14 to 35 days relative to control; type: functional; parameters: scale not given: the % may be the effect or the level left
# [8] = Half life in mouse liver microsomes at 0.1 uM by HPLC-MS/MS analysis; type: ADME, microsome
# Mus musculus [9] = experiment: Hepatotoxicity in C57BL/Ksj db/db mouse at 100 mg/kg, po administered once daily via lavage for 5 weeks measured daily during compound dosing; type: toxicity, organism-based; conditions: in vivo, 840 h
# Mus musculus [10] = experiment: Toxicity in C57BL/Ksj db/db mouse assessed as effect on pancreas at 100 mg/kg, po administered once daily via lavage for 5 weeks measured daily during compound dosing; type: organism-based; conditions: in vivo, 840 h
# [11] = Stability in human liver microsomes assessed as parent compound remaining at 0.1 uM after 60 mins by HPLC-MS/MS analysis; type: ADME, microsome; conditions: read-out: Stability
# [12] = Intrinsic clearance in mouse liver microsomes assessed per gram of protein at 0.1 uM by HPLC-MS/MS analysis; type: ADME, microsome
# Mus musculus [13] = experiment: Toxicity in C57BL/Ksj db/db mouse assessed as body weight loss at 100 mg/kg, po administered once daily via lavage for 5 weeks measured daily during compound dosing; type: organism-based; conditions: in vivo, 840 h
# 3T3-L1 = experiment: Cytotoxicity against mouse 3T3L1 pre-adipocytes assessed as effect on cell viability up to 80 uM after 24 hrs by MTT assay; type: cell-based; conditions: 3t3-l1, 24 h
# in vitro = conditions: mouse, plasma
# Description: Protein binding in mouse plasma at 1 uM after 16 hrs by LC-MS/MS analysis
# Mus musculus [14] = experiment: Toxicity in C57BL/Ksj db/db mouse assessed as effect on abdominal adipose tissue lipid content at 100 mg/kg, po administered once daily via lavage for 5 weeks measured daily during compound dosing; type: organism-based; conditions: in vivo, 840 h
# Mus musculus [15] = experiment: Renal toxicity in C57BL/Ksj db/db mouse at 100 mg/kg, po administered once daily via lavage for 5 weeks measured daily during compound dosing; type: organism-based; conditions: in vivo, 840 h
# [16] = Half life in human liver microsomes at 0.1 uM by HPLC-MS/MS analysis; type: ADME, microsome
# [17] = Stability in rat liver microsomes assessed as parent compound remaining at 0.1 uM after 60 mins by HPLC-MS/MS analysis; type: ADME, microsome; conditions: read-out: Stability
# Mus musculus [18] = experiment: Effect on total cholesterol levels in C57BL/Ksj db/db mouse at 100 mg/kg, po administered once daily via lavage for 2 to 4 weeks; type: ADME, organism-based; conditions: in vivo
# [19] = target: T1, Fatty acid-binding protein, adipocyte; experiment: Binding affinity to FABP4 (unknown origin) by isothermal calorimetric titration method
# T1 sequence (P15090 whole entry): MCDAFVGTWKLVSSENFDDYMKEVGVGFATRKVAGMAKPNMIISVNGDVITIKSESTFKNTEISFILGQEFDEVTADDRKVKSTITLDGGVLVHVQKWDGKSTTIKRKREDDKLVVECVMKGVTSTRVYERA
# Sequence of Fatty acid-binding protein, heart (P05413 whole entry): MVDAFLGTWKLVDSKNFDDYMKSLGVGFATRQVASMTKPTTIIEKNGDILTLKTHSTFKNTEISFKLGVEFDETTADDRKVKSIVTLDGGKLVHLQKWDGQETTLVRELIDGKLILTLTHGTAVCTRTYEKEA
smiles,measurement,setting,value
O=C(O)CSCC(=O)Nc1cc(Cl)cc(Cl)c1,Ki,[1],1.66 µM
O=C(O)CCCCNS(=O)(=O)c1ccc(Cl)c2ccccc12,Ki,[1],1.85 µM
COc1ccc(S(=O)(=O)NCc2ccc(C(=O)O)cc2)c2ccccc12,Ki,[1],0.76 µM
COc1ccc(S(=O)(=O)Nc2cc(C(=O)O)ccc2Cl)c2ccccc12,Ki,[1],0.93 µM
COc1ccc(S(=O)(=O)NCc2cccc(C(=O)O)c2)c2ccccc12,Ki,[1],2.12 µM
COc1ccc(S(=O)(=O)Nc2cc(C(=O)O)c(F)cc2F)c2ccccc12,IC50,[2],> 100 µM
same,IC50,[1],1.84 µM
same,Ki,[1],0.23 µM
Cc1c(C)c(C)c(S(=O)(=O)NCCCCC(=O)O)c(C)c1C,Ki,[1],0.91 µM
O=C(O)CCCCCNS(=O)(=O)c1cc(Cl)cc(Cl)c1,Ki,[1],4.84 µM
COc1ccc(S(=O)(=O)Nc2ccc(C(=O)O)cc2)c2ccccc12,Ki,[1],1.28 µM
COc1ccc(C(=O)O)cc1NS(=O)(=O)c1ccc(OC)c2ccccc12,Ki,[1],> 6.14 µM
COc1ccc(S(=O)(=O)Nc2cccc(CCC(=O)O)c2)c2ccccc12,Ki,[1],0.58 µM
COc1ccc(S(=O)(=O)Nc2ccc(F)c(C(=O)O)c2)c2ccccc12,CLint,[3],7.51 mL/min/g
same,"remaining at 1 h, 0.1 µM",[4],96.9%
same,CLint,[5],3.15 mL/min/g
same,half-life at 0.1 µM,[6],11.1 h
same,Activity,Mus musculus [7],20 - 35%
same,half-life at 0.1 µM,[8],24.6 h
same,Activity,Mus musculus [9],Non-Toxic
same,Activity,Mus musculus [10],Non-Toxic
same,"remaining at 1 h, 0.1 µM",[11],72.3%
same,CLint,[12],1.4 mL/min/g
same,IC50,[2],> 100 µM
same,Activity,Mus musculus [13],Non-Toxic
same,Activity,3T3-L1,Non-Toxic
same,"fraction unbound at 16 h, 1 µM",in vitro,0.0147
same,Activity,Mus musculus [14],Non-Toxic
same,Activity,Mus musculus [15],Non-Toxic
same,half-life at 0.1 µM,[16],4.66 h
same,"remaining at 1 h, 0.1 µM",[17],93.4%
same,IC50,[1],1.69 µM
same,Ki,[1],0.21 µM
same,Activity,Mus musculus [18],Non-Toxic
COc1ccc(S(=O)(=O)Nc2cc(Cl)cc(C(=O)O)c2)c2ccccc12,Ki,[1],0.82 µM
O=C(O)CCNS(=O)(=O)c1cc(Cl)cc(Cl)c1,Ki,[1],6.51 µM
O=C(O)CCCCNS(=O)(=O)c1ccc(Br)c2ccccc12,Ki,[1],1.16 µM
COc1ccc(S(=O)(=O)Nc2cccc(C(=O)O)c2)c2ccccc12,IC50,[2],> 100 µM
same,IC50,[1],3.22 µM
same,Ki,[1],0.4 µM
Cc1cc(C)c(C)c(S(=O)(=O)NCCCCC(=O)O)c1C,Ki,[1],1.95 µM
COc1ccc(S(=O)(=O)Nc2cc(F)cc(C(=O)O)c2)c2ccccc12,Ki,[1],1.15 µM
COc1ccc(S(=O)(=O)Nc2cc(C(=O)O)ccc2C)c2ccccc12,Ki,[1],2.76 µM
O=C(O)CCCNC(=O)c1cc(Cl)cc(Cl)c1,Ki,[1],4.32 µM
O=C(O)CCCCNS(=O)(=O)c1ccc(F)c2ccccc12,Ki,[1],2.16 µM
COc1ccc(S(=O)(=O)Nc2ccc(CC(=O)O)cc2)c2ccccc12,Ki,[1],1.67 µM
O=C(O)CCCCNS(=O)(=O)c1cc(Cl)cc(Cl)c1,Ki,[1],1.19 µM
COc1ccc(S(=O)(=O)NC(C)c2cccc(C(=O)O)c2)c2ccccc12 (configuration not stated),Ki,[1],> 6.14 µM
COc1ccc(S(=O)(=O)Nc2cc(C(=O)O)ccn2)c2ccccc12,Ki,[1],> 6.14 µM
COc1ccc(S(=O)(=O)Nc2cncc(C(=O)O)c2)c2ccccc12,Ki,[1],> 6.14 µM
COc1ccc(S(=O)(=O)Nc2cccc(C(=O)O)c2C)c2ccccc12,Ki,[1],> 6.14 µM
O=C(O)CCCNS(=O)(=O)c1cc(Cl)cc(Cl)c1,Ki,[1],2.55 µM
COc1ccc(S(=O)(=O)Nc2cccc(CC(=O)O)c2)c2ccccc12,Ki,[1],0.84 µM
COc1ccc(S(=O)(=O)Nc2cccc(C(=O)O)c2F)c2ccccc12,Kd,[19],6.03 µM
same,Ki,[1],7.75 µM
COc1ccc(S(=O)(=O)Nc2ccc(F)c(C(=O)O)c2F)c2ccccc12,Ki,[1],7.38 µM
Cc1cc(C)c(S(=O)(=O)NCCCCC(=O)O)c(C)c1,Ki,[1],2.69 µM
COc1ccc(S(=O)(=O)Nc2ccc(C)c(C(=O)O)c2)c2ccccc12,Ki,[1],> 6.14 µM
COc1ccc(S(=O)(=O)Nc2cc(C(=O)O)ccc2F)c2ccccc12,CLint,[3],7.02 mL/min/g
same,"remaining at 1 h, 0.1 µM",[4],94.8%
same,CLint,[5],2.9 mL/min/g
same,half-life at 0.1 µM,[6],12.1 h
same,Activity,Mus musculus [7],20 - 35%
same,half-life at 0.1 µM,[8],14.3 h
same,Activity,Mus musculus [9],Non-Toxic
same,Activity,Mus musculus [10],Non-Toxic
same,"remaining at 1 h, 0.1 µM",[11],73.6%
same,CLint,[12],2.4 mL/min/g
same,IC50,[2],> 100 µM
same,Activity,Mus musculus [13],Non-Toxic
same,Activity,3T3-L1,Non-Toxic
same,Activity,Mus musculus [14],Non-Toxic
same,Activity,Mus musculus [15],Non-Toxic
same,half-life at 0.1 µM,[16],4.99 h
same,"remaining at 1 h, 0.1 µM",[17],93.9%
same,Activity,Mus musculus [18],Non-Toxic
CC(C)NCC(O)COc1cccc2ccccc12 (configuration not stated) [PROPRANOLOL],"fraction unbound at 16 h, 1 µM",in vitro,0.109
